From patent publication US20090023186A1, “USE OF VALPROIC ACID FOR ENHANCING PRODUCTION OF RECOMBINANT PROTEINS IN MAMMALIAN CELLS” (EXCELLGENE SA, priority 2007, published 2009)

Key:
[1] = tested on: CHO DG44 cells; assay: Multiple VPA additions, IgG batch titer by ELISA (Example 3); format: cell-based, Chinese Hamster; conditions: day 10 after transfection
Experimental: 10 million suspension-adapted HEK293E cells were resuspended in 0.5 ml of Ex-Cell 293 HEK 293 serum-free medium with 4 mmol/l L-glutamine (Cat. No. 14571C-[…]; Lot No. 6A0093; SAFC Biosciences, Lenexa, Kans., USA, “Ex-Cell” medium; note: “Ex-Cell” medium-as used herein-refers to a medium comprising 4 mmol/l L-glutamine) in a 50-ml filter tube each (TPP AG, Trasadingen, Switzerland; Cat. No. 87050, Lot 20050174). In a separate set, 10 million suspension-adapted CHO DG44 cells were resuspended in 0.5 ml of ProCHO5 serum-free medium with 4 mmol/[…] hypoxanthine and 0.194 g/l thymidine (BioWhittaker (Lonza), Belgium; Cat. No. BE12-[…]; Lot No. 7 MB0040; “ProCHO5” medium; note: “ProCHO5” medium-as used herein-refers to a medium comprising 4 mmol/[…] hypoxanthine and 0.194 g/l thymidine) in a 50-ml filter tube each (TPP AG, Trasadingen, Switzerland; Cat. No. 87050, Lot 20050174). Then 12.5 μg plasmid DNA at a concentration of 1 μg/μl was added in each tube with the following composition 50% (6.25 μg) p-LC (SEQ ID NO: 1) 50% (6.25 μg) p-HC (SEQ ID NO: 3). Plasmid p-LC comprises the genetic information for the production of the light chain of an IgG antibody, plasmid p-HC comprises the genetic information for the production of the heavy chain of an IgG antibody. The particular vector constructs used in the present invention can also be obtained from the inventors. The inventors can be contacted via e-mail at […]. […] In short, Goat anti-human kappa light chain IgG (Biosource) was used for coating the ELISA-plates, and with AP-conjugated goat anti-human gamma chain IgG (Biosource) the synthesized IgG1 was detected. […] Absorption was measured at 405 nm against 490 nm using a microplate reader (SPECTRAmaxTM340; Molecular Devices, Palo Alto, Calif., USA).

[2] = tested on: HEK293E cells; assay: Alternative transgene TNFR-Fc, batch titer by ELISA (Example 4); format: cell-based, Human; conditions: 3.8 mmol/l final VPA, day 5 after transfection
Experimental: 10 million suspension-adapted HEK293E cells were resuspended in 0.5 ml of Ex-Cell 293 HEK 293 serum-free medium with 4 mmol/l L-glutamine (Cat. No. 14571C-[…]; Lot No. 6A0093; SAFC Biosciences, Lenexa, Kans., USA, “Ex-Cell” medium; note: “Ex-Cell” medium-as used herein-refers to a medium comprising 4 mmol/l L-glutamine) in a 50-ml filter tube each (TPP AG, Trasadingen, Switzerland; Cat. No. 87050, Lot 20050174). In a separate set, 10 million suspension-adapted CHO DG44 cells were resuspended in 0.5 ml of ProCHO5 serum-free medium with 4 mmol/[…] hypoxanthine and 0.194 g/l thymidine (BioWhittaker (Lonza), Belgium; Cat. No. BE12-[…]; Lot No. 7MB0040; “ProCHO5” medium; note: “ProCHO5” medium-as used herein-refers to a medium comprising 4 mmol/[…] hypoxanthine and 0.194 g/l thymidine) in a 50-ml filter tube each (TPP AG, Trasadingen, Switzerland; Cat. No. 87050, Lot 20050174). […] In short, Goat Anti-Human IgG (Fc Fragment specific; Jackson ImmunoResearch Laboratories Inc., West Grove, Pa., USA; Code Number 109-006-098; Lot No. 72349) was used for coating the ELISA-plates, and with AP-conjugated goat anti-human gamma chain IgG (Biosource) the synthesized TNFR-Fc was detected. […] Absorption was measured at 405 nm against 490 nm using a microplate reader (SPECTRAmaxTM340; Molecular Devices, Palo Alto, Calif., USA).

## CCCC(CCC)C(=O)O [VPA, valproic acid]
[1]; 0.5 mmol/l VPA at day 0
  Batch titer: 35.8 mg/L
[1]
  batch titers, direct addition versus slowly increasing concentration: statistically not different
[1]; escalating dosage, 0.125 to 0.5 mmol/l in 0.125 mmol/l increments every other day
  Batch titer: 37.9 mg/L
[2]
  Batch titer: 159.5 ± 12.0 mg/L
  Fold increase over control: 4.5 fold
